Assay results as given in patent publication US20240091162A1, “COMPOSITIONS AND METHODS FOR TREATING DEPRESSION AND ANXIETY” (THE TRUSTEES OF COLUMBIA UNIVERSITY IN THE CITY OF NEW YORK, priority 2021, published 2024).

Tests used:
[1] = in vivo FLX pharmacokinetic study and in vivo imaging of model drug distribution after delivery by microburs; conditions: after delivery by MBs
[2] = release of nanoparticles / SSRI from microbur and mesoporous silica nanoparticles; assay type: physicochemical
[3] = in vivo

| SMILES | model drug distribution (in vivo imaging system) [1] | FLX release profile from MB ([2]; MB with different structures) | release of SSRI from MSN ([2]; from a 42 nm-sized MSN) | dispersion of FLX in the intestine [3] |
| --- | --- | --- | --- | --- |
| O=C1OC2(c3ccc(O)cc3Oc3cc(O)ccc32)c2ccccc21 [Fluorescein] | selective dispersion of drug in the gut |  |  |  |
| CNCCC(Oc1ccc(C(F)(F)F)cc1)c1ccccc1 (stereo not shown) [Fluoxetine, fluoxetine] |  | sustainable FLX release profile | controlled release | local dispersion of FLX on small intestine epithelium |
